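Values below derive from 48-hour exposures of cells grown in 96-well plates, with endpoints linearly interpolated between the two concentrations bracketing the appropriate inhibition level. GI50: concentration for 50% inhibition of growth.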 Calls of active or inactive are those of the source. Rule as the data show it: active = GI50 up to about 1.1 µM and inactive = higher.
Legend:
Assay in all cases: growth of human tumour cells (NCI), 48 h
CCRF-CEM = tested on: CCRF-CEM
EKVX = tested on: EKVX
HCC 2998 = tested on: HCC 2998
HCT-116 = tested on: HCT-116
NCI-H226 = tested on: NCI-H226
NCI/ADR-RES = tested on: NCI/ADR-RES
OVCAR-4 = tested on: OVCAR-4
OVCAR-5 = tested on: OVCAR-5
RXF 393 = tested on: RXF 393
SF-539 = tested on: SF-539
SK-MEL-5 = tested on: SK-MEL-5
SNB-19 = tested on: SNB-19
SNB-75 = tested on: SNB-75
SR = tested on: SR
U-251 = tested on: U-251
UO-31 = tested on: UO-31
LOX IMVI = tested on: LOX IMVI
RPMI-8226 = tested on: RPMI-8226

Measured: GI50

Cc1ccc(S(=O)(=O)NC(=O)NC2=NC(C)(C)N(c3ccc(Cl)c(Cl)c3)C(N)=N2)cc1
inactive: CCRF-CEM 4.74 µM | EKVX > 100 µM | HCC 2998 15.9 µM | HCT-116 3.72 µM | NCI-H226 67.8 µM | NCI/ADR-RES > 100 µM | OVCAR-4 > 100 µM | OVCAR-5 > 100 µM | RXF 393 66.7 µM | SF-539 29.2 µM | SK-MEL-5 18.3 µM | SNB-19 97.9 µM | SNB-75 31.6 µM | SR 8.75 µM | U-251 5.68 µM | UO-31 > 100 µM

Fc1ccc2nc3n(c2c1)C(c1c(Cl)cccc1Cl)SC3 (stereo unspecified)
inactive: HCC 2998 > 100 µM | HCT-116 > 100 µM | LOX IMVI > 100 µM | NCI-H226 > 100 µM | NCI/ADR-RES > 100 µM | OVCAR-4 > 100 µM | OVCAR-5 > 100 µM | RPMI-8226 > 100 µM | RXF 393 > 100 µM | SF-539 > 100 µM | SK-MEL-5 > 100 µM | SNB-19 > 100 µM | SNB-75 63.4 µM | SR 4.3 µM | U-251 > 100 µM | UO-31 > 100 µM

CCOC(CN(C)C(=S)Nc1cccc2ccccc12)OCC
inactive: CCRF-CEM > 10 µM | EKVX > 10 µM | HCC 2998 > 10 µM | HCT-116 > 10 µM | LOX IMVI > 10 µM | NCI-H226 > 10 µM | NCI/ADR-RES > 10 µM | OVCAR-4 > 10 µM | RPMI-8226 > 10 µM | RXF 393 > 10 µM | SF-539 > 10 µM | SK-MEL-5 > 10 µM | SNB-19 > 10 µM | SNB-75 > 10 µM | SR > 10 µM | U-251 > 10 µM | UO-31 > 10 µM

CC(C)=CCC\C(C)=C/C=C/C(C)=C\C=C\C(C)=C/C=C/C=C(C)\C=C\C=C(C)/C=C/C=C(/C)CCC=C(C)C
inactive: CCRF-CEM > 100 µM | EKVX > 100 µM | HCC 2998 > 100 µM | HCT-116 > 100 µM | LOX IMVI > 100 µM | NCI-H226 > 100 µM | NCI/ADR-RES > 100 µM | OVCAR-4 > 100 µM | OVCAR-5 > 100 µM | RXF 393 > 100 µM | SF-539 > 100 µM | SK-MEL-5 > 100 µM | SNB-19 > 100 µM | SNB-75 > 100 µM | SR > 100 µM | UO-31 > 100 µM

CCOC(=O)c1ccc(Nc2cnc3cc(C(F)(F)F)ccc3n2)cc1
inactive: CCRF-CEM > 100 µM | EKVX > 100 µM | HCC 2998 > 100 µM | HCT-116 63 µM | LOX IMVI > 100 µM | NCI-H226 > 100 µM | NCI/ADR-RES > 100 µM | OVCAR-4 > 100 µM | OVCAR-5 > 100 µM | RPMI-8226 > 100 µM | RXF 393 > 10 µM | SF-539 79.6 µM | SK-MEL-5 > 100 µM | SNB-75 44.9 µM | SR > 100 µM | U-251 > 100 µM | UO-31 > 100 µM

CCOC(=O)c1sc2nc(SC)nc(Nc3ccc(OC)c(OC)c3)c2c1N
inactive: CCRF-CEM 1.3 µM | EKVX 23.3 µM | HCC 2998 60 µM | HCT-116 7.05 µM | LOX IMVI > 100 µM | NCI-H226 7.94 µM | NCI/ADR-RES 3.48 µM | OVCAR-4 6.65 µM | OVCAR-5 > 100 µM | RPMI-8226 1.84 µM | RXF 393 3.33 µM | SF-539 1.58 µM | SK-MEL-5 3.61 µM | SNB-19 18 µM | SR 20.9 µM | U-251 3.03 µM | UO-31 22.4 µM

COC(=O)c1nc(Cl)nc(Cl)c1Cl
inactive: CCRF-CEM 6.49 µM | HCC 2998 22 µM | HCT-116 18.2 µM | LOX IMVI 13.4 µM | NCI-H226 27 µM | NCI/ADR-RES 33.8 µM | OVCAR-4 19.5 µM | OVCAR-5 23.5 µM | RPMI-8226 1.29 µM | RXF 393 14.4 µM | SF-539 24.5 µM | SK-MEL-5 18.3 µM | SNB-19 83.8 µM | SNB-75 87.7 µM | SR 15.1 µM | U-251 26.1 µM | UO-31 19.2 µM

O=C1N=C(SC2OC(CO)C(O)C(O)C2O)S/C1=C\c1ccccc1 (stereo unspecified)
inactive: CCRF-CEM > 100 µM | HCC 2998 > 100 µM | LOX IMVI > 100 µM | NCI-H226 > 100 µM | NCI/ADR-RES > 100 µM | OVCAR-5 > 100 µM | RPMI-8226 > 100 µM | RXF 393 25.6 µM | SF-539 > 100 µM | SK-MEL-5 > 100 µM | SNB-19 > 100 µM | SNB-75 > 100 µM | SR > 100 µM | UO-31 > 100 µM

O=C(Oc1cccc(Cl)c1)c1cc2cc(CCl)ccc2oc1=O
inactive: EKVX 44.4 µM | HCC 2998 16 µM | HCT-116 61.5 µM | LOX IMVI 40.6 µM | NCI-H226 37.8 µM | NCI/ADR-RES > 100 µM | OVCAR-4 41.5 µM | OVCAR-5 > 100 µM | RPMI-8226 61.7 µM | RXF 393 20.7 µM | SF-539 49.1 µM | SK-MEL-5 16.9 µM | SNB-19 36.8 µM | SNB-75 31.4 µM | SR 63.8 µM | UO-31 32.8 µM

Source: ChEMBL document CHEMBL1201862, “PubChem BioAssay data set” (2004)
